What all share (format): cell-based
In one test the target is T1, PPAR-γ (Homo sapiens, UniProt P37231).
T1 construct: expressed in transfected cells; host or cells: U2OS cells, transiently transfected with pcDNA3.1 expression vectors (FuGene6)
T1 sequence (P37231 1-505): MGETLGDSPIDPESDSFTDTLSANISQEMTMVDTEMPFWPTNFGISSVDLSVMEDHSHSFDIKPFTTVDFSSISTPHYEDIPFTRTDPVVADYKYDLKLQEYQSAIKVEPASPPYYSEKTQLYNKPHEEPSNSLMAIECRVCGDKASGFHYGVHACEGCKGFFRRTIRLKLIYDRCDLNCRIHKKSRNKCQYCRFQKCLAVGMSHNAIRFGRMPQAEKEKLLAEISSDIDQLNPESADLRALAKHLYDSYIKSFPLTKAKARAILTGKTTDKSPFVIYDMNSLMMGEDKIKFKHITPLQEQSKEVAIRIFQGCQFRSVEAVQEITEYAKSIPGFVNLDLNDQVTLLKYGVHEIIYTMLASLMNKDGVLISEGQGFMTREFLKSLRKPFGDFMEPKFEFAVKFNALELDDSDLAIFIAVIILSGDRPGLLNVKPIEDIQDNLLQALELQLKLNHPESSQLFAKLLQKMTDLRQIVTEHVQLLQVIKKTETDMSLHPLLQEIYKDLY
T1 sequence (P19793 1-462 partner): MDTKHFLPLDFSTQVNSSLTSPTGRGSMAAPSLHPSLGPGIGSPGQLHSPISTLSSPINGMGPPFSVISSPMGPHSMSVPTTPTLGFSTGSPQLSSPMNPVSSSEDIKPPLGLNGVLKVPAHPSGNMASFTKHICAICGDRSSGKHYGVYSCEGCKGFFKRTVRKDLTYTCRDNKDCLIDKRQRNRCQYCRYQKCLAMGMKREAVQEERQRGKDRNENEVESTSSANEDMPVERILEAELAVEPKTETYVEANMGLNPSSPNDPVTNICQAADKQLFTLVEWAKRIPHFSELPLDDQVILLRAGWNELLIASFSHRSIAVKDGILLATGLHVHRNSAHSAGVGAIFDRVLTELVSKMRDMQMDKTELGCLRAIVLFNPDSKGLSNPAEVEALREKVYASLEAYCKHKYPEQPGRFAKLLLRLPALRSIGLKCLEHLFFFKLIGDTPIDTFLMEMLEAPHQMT
Briefly: Transient transfection and transcription assay (luciferase reporter, U2OS cells). To be noted: 24 h treatment. How it is done: cDNAs for Human RXR, PPAR were obtained by RTPCR from the human liver or adipose tissues. Amplified cDNAs were cloned into pcDNA3.1 expression vector and the inserts were confirmed by sequencing. U2OS cells were cultured in McCoy's 5A with 10% heat-inactivated fetal bovine serum in a humidified 5% CO2 atmosphere at 37° C. Cells were seeded in 96-well plates the day before transfection to give a confluence of 50-80% at transfection. A total of 60 ng of DNA containing 10 ng of hRXR, 10 ng of pCMV Gal, 10 ng of nuclear receptor expression vectors and 30 ng of the corresponding reporters were cotransfected per well using FuGene6 transfection reagent according to the manufacturer's instructions. […] The final concentration of DMSO in culture medium was 0.1%. […] Luciferase activity was monitored using the luciferase assay kit according to the manufacturers instructions. Light emission was read in a Labsystems Ascent Fluoroskan reader. To measure galactosidase activity to normalize the luciferase data, 50 IL of supernatant from each transfection lysate was transferred to a new microplate. Galactosidase assays were performed in the microwell plates using a kit from Promega and read in a microplate reader. Compounds were tested in five concentrations ranging from 0.01 to 10 μM. […] The results were expressed as means (SD).
Background: Reporter assays use an easily measured gene product as a stand-in for the process of interest.

Another test relates to T24. In words: Growth inhibition, modified MTT assay, T24. To be noted: Homo sapiens, T-24, mean of 3 independent tests. On the procedure: (§1) The growth inhibition was evaluated by the modified MTT assay. Briefly, the cells were seeded at 1×10^4 cells/well in 96-well plates (Falcon, Calif., USA), and incubated for 24 h in […] culture media with 10% FCS. The media were then replaced by serum-free medium. After 24 h, the media were placed in triplicate with grade concentrations of compounds. As controls, the cells were cultivated in DMEM/F12 only. The cells were then treated by MTT (Sigma, USA) assay, […] (5 g/L) for 4 h. After the removal of the supernatant, the purple-blue sediment was dissolved in 100 μL/well DMSO, and the optical densities were read on the multi-well scanning spectrophotometer (Labsystems Dragon, Finland) at 492 nm (A492). The growth inhibition rate (GIR) of the treated cells was calculated using Equation: GIR(%)={1−[A490/A490(control)]}×100% The results were also converted to IC50 (the compound concentration required for 50% growth inhibition of tumor cells), which were calculated by using the sigmoidal fitting model by the Origin 7.0 software (OriginLab, Northampton, Mass., USA). The mean IC50 was determined from the results of 3 independent tests.
A general note: Tetrazolium assays rely on reduction of a dye to a coloured formazan, in cell work by metabolically active cells.

Another test deals with HepG2. In words: Growth inhibition, modified MTT assay, HepG2. To be noted: Homo sapiens, mean of 3 independent tests. On the procedure: as §1
Another test deals with SPC-A1. Briefly: Growth inhibition, modified MTT assay, SPC-A1. To be noted: SPCA1, mean of 3 independent tests. On the procedure: as §1
In another test the test system is MCF-7. Briefly: Growth inhibition, modified MTT assay, MCF-7. To be noted: Homo sapiens, MCF7; MCF-7, MTT, mean of 3 independent tests. How it is done: as §1

In general, EC50 refers to the concentration at which the effect is half-maximal. A higher EC50 goes with weaker potency. `C[C@@](Cc1ccc(Oc2cc(N3CCN(Cc4ccccc4)CC3)nc(N)n2)cc1)(Oc1ccccc1)C(=O)O` (stereo in doubt) [Compound 4, R-3-{4-[2-Amino-6-(4-benzyl-piperazin-1-yl)-pyrimidin-4-yloxy]-phenyl}-2-methyl-2-phenoxy-propionic acid]: the EC50 on PPAR-γ worked out at 5.75 µM.
In turn, `C[C@@](Cc1ccc(Oc2cc(N3CCN(Cc4ccccc4)CC3)nc(N)n2)cc1)(Oc1ccccc1)C(=O)O` [Compound 3, S-3-{4-[2-Amino-6-(4-benzyl-piperazin-1-yl)-pyrimidin-4-yloxy]-phenyl}-2-methyl-2-phenoxy-propionic acid] had an EC50 at PPAR-γ of 3.31 µM.
The IC50 is the concentration that gives 50% inhibition. High values mean weaker potency, low ones greater potency. `CC(Cc1ccc(Oc2cc(N3CCN(Cc4cccc5ccccc45)CC3)nc(N)n2)cc1)(Oc1ccccc1)C(=O)O` (stereo not shown) [Compound 6, 3-{4-[2-Amino-6-(4-(naphthalen-1-ylmethyl)-piperazin-1-yl)-pyrimidin-4-yloxy]-phenyl}-2-methyl-2-phenoxy-propionic acid] came in with an EC50 at PPAR-γ of 3.39 µM. For the same compound, the IC50 with T24 is 36.3 µM; in the test on HepG2, 24.8 µM; in the test on SPC-A1 it was 49.8 µM; with MCF-7 it was 42.2 µM.
In the case of `Cc1cccc(CN2CCN(c3cc(Oc4ccc(CC(C)(Oc5ccccc5)C(=O)O)cc4)nc(N)n3)CC2)c1` (stereo not shown) [Compound 9, 3-{4-{2-Amino-6-[4-(3-methyl-benzyl)-piperazin-1-yl]-pyrimidin-4-yloxy}-phenyl}-2-methyl-2-phenoxy-propionic acid], at PPAR-γ, the EC50 stood at 4.17 µM. Further, the IC50 was greater than 50 µM in the test with T24, greater than 50 µM in the test on HepG2, 48.9 µM in the test on SPC-A1 and 38 µM with MCF-7.
`CC(Cc1ccc(Oc2cc(N3CCN(Cc4cccc(C(F)(F)F)c4)CC3)nc(N)n2)cc1)(Oc1ccccc1)C(=O)O` (stereo not shown) [Compound 10, 3-{4-{2-Amino-6-[4-(3-trifluoromethyl-benzyl)-piperazin-1-yl]-pyrimidin-4-yloxy}-phenyl}-2-methyl-2-phenoxy-propionic acid] displayed an EC50 on PPAR-γ of 4.27 µM. Also, the IC50 was 29.1 µM in the test with T24, 38.1 µM in the test with HepG2, 25.1 µM in the test on SPC-A1 and 15.1 µM with MCF-7.
For `CC(Cc1ccc(Oc2cc(N3CCN(Cc4ccc(C(C)(C)C)cc4)CC3)nc(N)n2)cc1)(Oc1ccccc1)C(=O)O` (stereo not shown) [Compound 14, 3-{4-{2-Amino-6-[4-(4-tert-butyl-benzyl)-piperazin-1-yl]-pyrimidin-4-yloxy}-phenyl}-2-methyl-2-phenoxy-propionic acid], in that order: 6.03 µM, 12.5 µM, 26.5 µM, 8.6 µM and 7.9 µM.
In the case of `CC(Cc1ccc(Oc2cc(N3CCN(c4ncccn4)CC3)nc(N)n2)cc1)(Oc1ccccc1)C(=O)O` (stereo not shown) [Compound 20, 3-{4-[2-Amino-6-(4-pyrimidin-2-yl-piperazin-1-yl)-pyrimidin-4-yloxy]-phenyl}-2-methyl-2-phenoxy-propionic acid], the EC50 on PPAR-γ was 5.89 µM. Besides, the IC50 is 20.1 µM with T24, 32.6 µM in the test on HepG2, 29.1 µM in the test on SPC-A1 and 35.7 µM with MCF-7.
For `CC(Cc1ccc(Oc2cc(N3CCN(C(=O)c4ccccc4)CC3)nc(N)n2)cc1)(Oc1ccccc1)C(=O)O` (stereo not shown) [Compound 21, 3-{4-[2-Amino-6-(4-benzoyl-piperazin-1-yl)-pyrimidin-4-yloxy]-phenyl}-2-methyl-2-phenoxy-propionic acid], the IC50 in the test with T24, in the test on HepG2, in the test on SPC-A1 and in the test with MCF-7 was greater than 50 µM each time.
For the compound `CC(Cc1ccc(Oc2cc(N3CCN(c4ccccc4)CC3)nc(N)n2)cc1)(Oc1ccccc1)C(=O)O` (stereo not shown) [Compound 22, 3-{4-[2-Amino-6-(4-phenyl-piperazin-1-yl)-pyrimidin-4-yloxy]-phenyl}-2-methyl-2-phenoxy-propionic acid], on PPAR-γ, a half-maximal effect (EC50) was put at 4.68 µM. For the same compound, the IC50 with T24 came to 22.6 µM; in the test on HepG2, 29.7 µM; with SPC-A1, 32.5 µM.
In the case of `CC(Cc1ccc(Oc2cc(N3CCN(c4cccc(Cl)c4)CC3)nc(N)n2)cc1)(Oc1ccccc1)C(=O)O` (stereo not shown) [Compound 23, 3-{4-{2-Amino-6-[4-(3-chloro-phenyl)-piperazin-1-yl]-pyrimidin-4-yloxy}-phenyl}-2-methyl-2-phenoxy-propionic acid], the 50% effective concentration (EC50) on PPAR-γ is 4.37 µM. The IC50 with T24 is 15.2 µM; with HepG2, 20 µM; in the test on SPC-A1 it was 12 µM; in the test with MCF-7 it was 11.8 µM.
`CCCc1ccc(C(=O)N2CCN(c3cc(Oc4ccc(CC(C)(Oc5ccccc5)C(=O)O)cc4)nc(N)n3)CC2)cc1` (stereo not shown) [Compound 24, 3-{4-{2-Amino-6-[4-(4-propyl-benzoyl)-piperazin-1-yl]-pyrimidin-4-yloxy}-phenyl}-2-methyl-2-phenoxy-propionic acid]: the IC50 was 39.4 µM with T24, greater than 50 µM in the test with HepG2, 43.7 µM in the test with SPC-A1 and 38.2 µM in the test on MCF-7.
For `COc1ccccc1C(=O)N1CCN(c2cc(Oc3ccc(CC(C)(Oc4ccccc4)C(=O)O)cc3)nc(N)n2)CC1` (stereo not shown) [Compound 25, 3-{4-{2-Amino-6-[4-(2-methoxy-benzoyl)-piperazin-1-yl]-pyrimidin-4-yloxy}-phenyl}-2-methyl-2-phenoxy-propionic acid] the same measures were greater than 50 µM, greater than 50 µM, greater than 50 µM and greater than 50 µM.
For `CC(Cc1ccc(Oc2cc(N3CCN(Cc4cccc(C#N)c4)CC3)nc(N)n2)cc1)(Oc1ccccc1)C(=O)O` (stereo not shown) [Compound 26, 3-{4-{2-Amino-6-[4-(3-cyano-benzyl)-piperazin-1-yl]-pyrimidin-4-yloxy}-phenyl}-2-methyl-2-phe noxy-propionic acid] the same measures were 38.8 µM, 35.6 µM, 37.7 µM and 23.3 µM.
`CC(Cc1ccc(Oc2cc(N3CCN(CC4CCCCC4)CC3)nc(N)n2)cc1)(Oc1ccccc1)C(=O)O` (stereo not shown) [Compound 27, 3-{4-[2-Amino-6-(4-cyclohexylmethyl-piperazin-1-yl)-pyrimidin-4-yloxy]-phenyl}-2-methyl-2-phenoxy-propionic acid] returned an EC50 at PPAR-γ of 5.37 µM. The IC50 was greater than 50 µM with T24, 44.5 µM with HepG2, greater than 50 µM in the test on SPC-A1 and greater than 50 µM with MCF-7.
`CC(Cc1ccc(Oc2cc(N3CCN(Cc4ccccn4)CC3)nc(N)n2)cc1)(Oc1ccccc1)C(=O)O` (stereo not shown) [Compound 36, 3-{4-[2-Amino-6-(4-pyridin-2-ylmethyl-piperazin-1-yl)-pyrimidin-4-yloxy]-phenyl}-2-methyl-2-phenoxy-propionic acid]: the IC50 in the test on T24, in the test with HepG2, with SPC-A1 and with MCF-7 was greater than 50 µM each time.

The values are drawn from patent US8513233B2, “Pyrimidinyl-propionic acid derivatives and their use as PPAR agonists” (Shanghai Institute of Materia Medica, CAS, priority 2007, dated 2013).
